Laboratory results published in patent publication US20250376522A1, “Targeting Cells with a Combination of CXCR2 Inhibition and CD47 Blockade” (The Board of Trustees of the Leland Stanford Junior …, priority 2022, published 2025).
pKd: −log10 of the molar value.

Experiments:
[1] = molecular target: T1, CXCR2 (Homo sapiens, UniProt P25025); details: cited from earlier work
T1 sequence (P25025 1-360): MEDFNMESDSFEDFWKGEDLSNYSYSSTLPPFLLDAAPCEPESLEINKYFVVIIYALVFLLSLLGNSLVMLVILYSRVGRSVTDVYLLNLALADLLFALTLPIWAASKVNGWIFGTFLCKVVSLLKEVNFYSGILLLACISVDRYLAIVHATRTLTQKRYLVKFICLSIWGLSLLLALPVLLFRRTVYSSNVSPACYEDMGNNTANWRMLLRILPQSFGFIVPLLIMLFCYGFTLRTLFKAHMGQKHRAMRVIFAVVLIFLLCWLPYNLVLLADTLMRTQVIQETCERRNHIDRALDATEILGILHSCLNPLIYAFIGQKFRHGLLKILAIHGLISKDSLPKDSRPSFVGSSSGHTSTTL

[2] = test system: CXCR2+ G-MDSCs; test: Thioglycolate-induced peritonitis, G-MDSC recruitment to peritoneum (flow cytometry); format: in vivo, mouse; details: 2 mg/kg IP at thioglycolate infusion and 12 hr later; peritoneal cells harvested at 24 h; control and Poly I:C-treated mice
Procedure: FIGS. 3A-3B. A) Representative flow cytometry plots of CXCR2 expression on peritoneal M-MDSCs and G-MDSCs of control and Poly I:C-treated CSF1R^FIFI-Mx1-Cre mice (n=5 mice). Peritoneal cells were harvested […] after thioglycolate infusion (n=5 mice). B) Representative flow cytometry plots of peritoneal M-MDSCs and G-MDSCs harvested 24 hrs after thioglycolate infusion of control and Poly I:C-treated CSF1R^FI/FI-Mx1-Cre mice (n=5 mice). Mice were either untreated or treated with 2 mg/kg SB225002 (CXCR2 inhibitor) at time of thioglycolate infusion and 12 hrs before harvesting (n=5 mice).
Blocking G-MDSC recruitment in thioglycolate-induced peritonitis with a CXCR2 inhibitor. The C-X-C chemokine receptor 2 (CXCR2) signaling axis plays a key role in the migration of immunosuppressive MDSCs. To identify whether these subsets of MDSCs in the peritoneal cavity elicited through thioglycolate-induced peritonitis express CXCR2, peritoneal cells were harvested 24 hours after intraperitoneal injection of thioglycolate and were analyzed by flow cytometry (FIG. 3A). […] At the 24 h time point, peritoneal cells were harvested and analyzed by flow cytometry (FIG. 3B).
Flow cytometry. […] Fluorescence compensations were performed using single-stained UltraComp eBeads (Affymetrix). […] Data was acquired using a FACSAria II cell sorter (BD Biosciences) and analyzed using FlowJo software. […]

[3] = test system: B16-F10 melanoma; test: B16-F10 melanoma in control and Poly I:C-treated CSF1R Fl/Fl-Mx1-Cre mice treated with CXCR2 inhibitor; format: in vivo, mouse
Procedure: FIGS. 5A-5D. A) CSF1R^FI/FI-Mx1-Cre mice received three intraperitoneal injections of Poly I:C (100 ug) and were rested for one week. 5×10^5 B16-F10 mouse melanoma cells were then subcutaneously engrafted into flanks of control and Poly I:C-treated CSF1R^FIFI-Mx1-Cre mice. Following the day of engraftment, mice were either untreated or treated daily with 2 mg/kg SB225002 (CXCR2 inhibitor). Burden of B16-F10 melanoma tumors in control and Poly I:C-treated CSF1R^FIFI-Mx1-Cre mice treated with or without SB225002. Data are mean±s.e.m. (n=5 mice per group). B) Flow cytometry analysis of M-MDSCs and G-MDSCs in tumors of mice. MDSCs are gated on CD11b+ cells. Data are mean±s.e.m. (n=5 mice per group). C) Flow cytometry analysis of M-MDSCs and G-MDSCs in bone marrow of tumor-bearing mice. MDSCs are gated on CD11b+ cells. Data are mean±s.e.m. (n=5 mice per group). D) Flow cytometry analysis of M-MDSCs and G-MDSCs in the peripheral blood of tumor-bearing mice. MDSCs are gated on CD11b+ cells. Data are mean±s.e.m. (n=5 mice per group).
Targeting G-MDSCs in B16-F10 melanoma with a CXCR2 inhibitor. To determine whether targeting CXCR2+ G-MDSCs could lead to an anti-tumor response, poly I:C and PBS mice were subcutaneously engrafted with B16-F10 melanoma. The day after engraftment, mice were treated intraperitoneally with PBS or SB225002 six days per week. […] Tumors were harvested and subjected to flow cytometry for immunophenotyping.
Flow cytometry. Samples were blocked with monoclonal antibody to CD16/32 (TruStain fcX, BioLegend) before staining with antibody panels. Samples were stained for 30 min on ice, and subsequently washed with FACS buffer (PBS with 1% FBS buffer). Fluorescence compensations were performed using single-stained UltraComp eBeads (Affymetrix). The following antibodies were used for FACS analysis: Anti-CD11b (M1/70 BD Biosciences); Anti-F4/80 (BM8 BioLegend); Anti-Ly6G (1A8 BioLegend), Anti-Ly6C (HK1.4 BioLegend); Anti-CXCR2 (SA044G4 BioLegend). SYTOX blue dead cell stain (Invitrogen) was used for dead cell exclusion. Data was acquired using a FACSAria II cell sorter (BD Biosciences) and analyzed using FlowJo software.
In vivo tumor experiments and treatments. Mice 6-8 weeks of age were given subcutaneous injection of B16-F10 melanoma cells in PBS into the right flank. Tumor growth was measured by using calipers and volumes were calculated by using the formula: volume= 4/3π×(x/2)2×(y/2), where x is the largest measurable dimension of the tumor and y is the dimension immediately perpendicular to x. Tumor volumes were evaluated using two-way ANOVA in GraphPad Prism. For tumor treatments, mice were given mouse IgG1 isotype control clone MOPC21 (BioXCell), anti-CD47 mAb clone MIAP410 (BioXCell), or SB225002 (ToCris) by intraperitoneal injection.

[4] = molecular target: T2, CXCR1 (Homo sapiens, UniProt P25024); details: read-out: Kd of IL-8 binding to CXCR1; cited from earlier work
T2 sequence (P25024 1-350): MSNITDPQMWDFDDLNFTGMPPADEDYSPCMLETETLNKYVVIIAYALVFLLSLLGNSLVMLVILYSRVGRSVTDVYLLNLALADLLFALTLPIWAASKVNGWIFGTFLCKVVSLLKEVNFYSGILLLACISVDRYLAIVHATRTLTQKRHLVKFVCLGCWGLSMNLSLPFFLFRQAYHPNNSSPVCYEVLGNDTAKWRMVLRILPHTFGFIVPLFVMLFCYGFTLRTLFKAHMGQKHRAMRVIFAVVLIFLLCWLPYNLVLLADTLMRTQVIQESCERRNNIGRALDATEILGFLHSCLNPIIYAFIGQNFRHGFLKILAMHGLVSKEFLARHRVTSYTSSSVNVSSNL

[5] = molecular target: T1, CXCR2; details: read-out: Kd of IL-8 binding to CXCR2; cited from earlier work

In the case of CC[C@@H](Nc1c(Nc2cccc(C(=O)N(C)C)c2O)c(=O)c1=O)c1ccc(C)o1 [Navaraxin, Navarixin], the Selective/Pan [1] is listed as “Selective”.
For O=C(Nc1ccc([N+](=O)[O-])cc1O)Nc1ccccc1Br [SB225002], the “Percentage of G-MDSCs in the peritoneal cavity” value [2] was “significantly decreased percentage of G-MDSCs”, the “Tumor progression (burden of B16-F10 melanoma tumors)” value ([3]; 2 mg/kg intraperitoneally from the day after engraftment, especially in mice expressing CSF1R) was “significantly decreased tumor progression” and the “G-MDSCs in bone marrow of tumor-bearing mice” value ([3]; bone marrow, flow cytometry) was “significant decrease of G-MDSCs”. For the same compound, the “G-MDSCs in peripheral blood of tumor-bearing mice” value ([3]; peripheral blood, flow cytometry) was “significant decrease of G-MDSCs”, the “Tumor-infiltrating G-MDSCs” value ([3]; tumors, flow cytometry, gated on CD11b+ cells) was “significant decrease in tumor-infiltrating G-MDSCs” and the Selective/Pan [1] was “Selective”.
In the case of O=C(Nc1ccc(F)cc1)c1cnc(SCc2cc(OC(F)(F)F)ccc2B(O)O)nc1 [SX-682], the Selective/Pan [1] is listed as “Pan”.
For “IL-8: chemokine ligand of CXCR1 and CXCR2”, the pKd [4] is listed as ~8.40 and the pKd [5] is listed as ~8.40.
